Where a name gives a salt, the structure may show the parent alone. Activity calls are given as the source filed them.
Key:
[1] = molecular target: T1, Corticotropin-releasing factor receptor 2/Corticotropin-releasing factor-binding protein (Homo sapiens, UniProt P24387+Q13324); assay: Dose Response confirmation of uHTS hits for small molecule antagonists of the CRF-binding protein and CRF-R2 receptor complex.; type: functional; settings: read-out: IC50_Mean
T1 sequence (Q13324 whole entry): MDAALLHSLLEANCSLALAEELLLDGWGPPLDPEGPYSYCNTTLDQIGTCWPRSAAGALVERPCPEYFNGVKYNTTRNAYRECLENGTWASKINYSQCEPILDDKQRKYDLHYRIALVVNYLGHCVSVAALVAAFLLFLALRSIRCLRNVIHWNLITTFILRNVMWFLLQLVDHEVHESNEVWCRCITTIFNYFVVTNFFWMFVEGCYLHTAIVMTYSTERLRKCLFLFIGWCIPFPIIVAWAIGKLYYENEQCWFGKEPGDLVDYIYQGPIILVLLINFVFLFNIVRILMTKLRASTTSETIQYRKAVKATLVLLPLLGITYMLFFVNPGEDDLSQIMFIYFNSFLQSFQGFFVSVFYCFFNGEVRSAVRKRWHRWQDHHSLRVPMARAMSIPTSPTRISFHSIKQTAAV
T1 sequence (P24387 whole entry): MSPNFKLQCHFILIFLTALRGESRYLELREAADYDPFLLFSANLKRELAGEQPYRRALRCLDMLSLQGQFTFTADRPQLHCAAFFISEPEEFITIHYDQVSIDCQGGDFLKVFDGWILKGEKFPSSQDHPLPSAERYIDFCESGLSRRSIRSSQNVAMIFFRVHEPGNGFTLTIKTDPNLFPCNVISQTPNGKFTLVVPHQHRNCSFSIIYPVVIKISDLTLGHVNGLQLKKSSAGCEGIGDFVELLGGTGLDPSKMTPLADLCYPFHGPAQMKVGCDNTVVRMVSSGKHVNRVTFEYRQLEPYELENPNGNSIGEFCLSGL

[2] = molecular target: T1, Corticotropin-releasing factor receptor 2/Corticotropin-releasing factor-binding protein; assay: activators of CRF receptor 2 with binding protein – uHTS hits, confirmation (AID 602473); type: functional; settings: read-out: EC50_Mean
[3] = CRF-BP/CRF-R2 complex antagonists, dose response, cell-based, uHTS hits, 384-well (AID 651639); type: functional, Homo sapiens; settings: read-out: IC50_Mean
cells = type: functional, cell-based
[4] = molecular target: T2, Nuclear receptor subfamily 0 group B member 1 (Homo sapiens, UniProt P51843); type: functional, cell-based;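 further: HEK293T cells transfected with SF-1 and DAX-1 plus StAR promoter luciferase reporter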
T2 sequence (P51843 whole entry): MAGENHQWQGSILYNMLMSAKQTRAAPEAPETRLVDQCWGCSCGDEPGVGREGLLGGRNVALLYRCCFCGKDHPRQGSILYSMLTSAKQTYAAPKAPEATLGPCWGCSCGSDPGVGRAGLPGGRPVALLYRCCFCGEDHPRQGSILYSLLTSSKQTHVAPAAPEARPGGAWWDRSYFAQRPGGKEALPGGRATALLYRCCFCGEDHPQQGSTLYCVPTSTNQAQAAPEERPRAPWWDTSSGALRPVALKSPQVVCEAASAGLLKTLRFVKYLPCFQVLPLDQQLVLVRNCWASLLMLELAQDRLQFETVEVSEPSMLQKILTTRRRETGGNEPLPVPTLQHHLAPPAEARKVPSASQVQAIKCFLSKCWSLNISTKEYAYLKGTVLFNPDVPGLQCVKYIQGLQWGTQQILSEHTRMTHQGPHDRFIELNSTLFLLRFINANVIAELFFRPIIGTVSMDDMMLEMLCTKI

[5] = Luminescence Cell-Based Dose Response HTS to Identify Inhibitors of 5'UTR Stem-Loop Driven Prion Protein mRNA Translation in H4 Neuroglioblastoma Cells. [Related pubchem assays: 1827 (Project Summary), 1813 (Primary HTS)]; type: functional
[6] = inhibitors of SNCA 5'UTR-driven reporter translation, confirmation, H4 neuroglioma cells, luminescence (AID 1988); type: functional, cell-based
[7] = molecular target: T3, Sentrin-specific protease 8 (Homo sapiens, UniProt Q96LD8); type: functional
T3 sequence (Q96LD8 whole entry): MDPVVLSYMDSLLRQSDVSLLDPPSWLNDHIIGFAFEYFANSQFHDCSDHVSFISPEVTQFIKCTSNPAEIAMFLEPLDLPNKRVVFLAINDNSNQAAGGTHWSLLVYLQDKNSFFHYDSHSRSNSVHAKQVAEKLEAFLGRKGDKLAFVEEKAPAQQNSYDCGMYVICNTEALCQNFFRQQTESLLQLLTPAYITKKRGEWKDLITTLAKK

[8] = molecular target: T3, Sentrin-specific protease 8; type: functional; remark: listed apart in the source
[9] = molecular target: T4, Mannose-6-phosphate isomerase (Homo sapiens, UniProt P34949); assay: human PMI inhibitors, high substrate, primary screen, biochemical, fluorescence intensity, high mannose 6-phosphate (AID 1220)
T4 sequence (P34949 whole entry): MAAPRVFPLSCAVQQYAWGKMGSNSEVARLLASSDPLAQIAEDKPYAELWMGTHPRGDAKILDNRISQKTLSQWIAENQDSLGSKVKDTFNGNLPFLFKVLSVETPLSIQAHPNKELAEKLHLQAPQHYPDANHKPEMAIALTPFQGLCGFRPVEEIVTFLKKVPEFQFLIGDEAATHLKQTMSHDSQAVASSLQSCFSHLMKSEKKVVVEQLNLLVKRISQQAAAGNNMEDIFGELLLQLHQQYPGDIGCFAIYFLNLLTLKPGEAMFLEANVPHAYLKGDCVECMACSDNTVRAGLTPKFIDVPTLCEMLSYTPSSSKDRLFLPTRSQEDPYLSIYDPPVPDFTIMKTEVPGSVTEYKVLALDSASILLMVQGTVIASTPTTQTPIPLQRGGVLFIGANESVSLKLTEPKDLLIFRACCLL

Streptococcus = assay: Group A Streptococcus viability loss, dose response, counter-screen for streptokinase expression inhibitor project, luminescence, BacTiterGlo (AID 1915); type: functional, organism-based;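 further: potency for reduction of bacterial viability or growth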
[10] = molecular target: T5, RNA-binding protein pos-1 (Caenorhabditis elegans, UniProt G5EF15); assay: inhibitors of POS-1/mex-3 RNA binding, dose response, biochemical, fluorescence polarization (AID 1964);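 further: purified POS-1 fused to maltose binding protein made in E. coli; potency of compounds blocking POS-1 binding to fluorescent RNA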
T5 sequence (G5EF15 whole entry): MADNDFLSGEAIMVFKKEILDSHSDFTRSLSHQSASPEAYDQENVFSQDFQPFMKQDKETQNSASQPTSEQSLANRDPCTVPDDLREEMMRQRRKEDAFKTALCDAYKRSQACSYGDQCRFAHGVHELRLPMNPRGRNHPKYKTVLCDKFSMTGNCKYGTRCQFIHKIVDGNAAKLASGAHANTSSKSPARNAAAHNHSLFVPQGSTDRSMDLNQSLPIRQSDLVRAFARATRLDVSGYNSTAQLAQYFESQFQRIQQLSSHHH

Escherichia coli [11] = assay: microbe, parasite or virus in culture
[12] = molecular target: T6, Zinc finger protein mex-5 (Caenorhabditis elegans, UniProt Q9XUB2); assay: MEX-5/TCR-2 RNA interaction inhibitors, dose response, biochemical, C. elegans, fluorescence polarization (AID 1960)
T6 sequence (Q9XUB2 whole entry): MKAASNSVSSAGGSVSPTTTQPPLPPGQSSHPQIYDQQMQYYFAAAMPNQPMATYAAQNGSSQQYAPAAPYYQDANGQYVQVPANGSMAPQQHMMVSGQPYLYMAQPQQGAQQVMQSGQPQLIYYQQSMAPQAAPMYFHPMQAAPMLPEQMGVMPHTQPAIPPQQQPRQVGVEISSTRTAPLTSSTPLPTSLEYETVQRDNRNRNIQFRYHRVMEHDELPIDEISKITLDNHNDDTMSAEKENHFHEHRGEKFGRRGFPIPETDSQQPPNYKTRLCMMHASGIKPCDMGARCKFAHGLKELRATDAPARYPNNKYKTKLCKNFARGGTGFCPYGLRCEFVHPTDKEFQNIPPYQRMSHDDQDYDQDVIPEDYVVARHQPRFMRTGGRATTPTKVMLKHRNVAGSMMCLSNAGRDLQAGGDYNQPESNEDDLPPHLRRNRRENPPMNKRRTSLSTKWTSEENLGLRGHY

[13] = test system: Streptococcus sp. 'group A'; assay: growth inhibition of control SK(-) GAS strain, dose response, counter-screen for streptokinase expression inhibitor project, luminescence, kanamycin, BacTiterGlo, confirmation (AID 1900); type: functional, organism-based
[14] = ARNT/TACC3 interaction disruptors, potency, confirmation, biochemical, AlphaScreen, cherry-picked samples (AID 651703); type: functional, Homo sapiens;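 further: His-tagged ARNT PAS-B domain paired with GST-TACC3 E629A dimer coactivator fragment; potency of inhibitors that break up the complex and lower AlphaScreen signal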
Escherichia coli [15] = assay: microbe, parasite or virus in culture; remark: listed apart in the source
[16] = molecular target: ADP-ribosylation factor GTPase-activating protein 1 (Rattus norvegicus, UniProt Q62848); assay: Fluorescence polarization-based biochemical high throughput dose response screening assay to identify inhibitors of ADP-ribosylation factor GTPase activating protein 1 (ARFGAP1).; type: functional
Chain of ADP-ribosylation factor GTPase-activating protein 1 (Q62848 whole entry, the tested form may be a part): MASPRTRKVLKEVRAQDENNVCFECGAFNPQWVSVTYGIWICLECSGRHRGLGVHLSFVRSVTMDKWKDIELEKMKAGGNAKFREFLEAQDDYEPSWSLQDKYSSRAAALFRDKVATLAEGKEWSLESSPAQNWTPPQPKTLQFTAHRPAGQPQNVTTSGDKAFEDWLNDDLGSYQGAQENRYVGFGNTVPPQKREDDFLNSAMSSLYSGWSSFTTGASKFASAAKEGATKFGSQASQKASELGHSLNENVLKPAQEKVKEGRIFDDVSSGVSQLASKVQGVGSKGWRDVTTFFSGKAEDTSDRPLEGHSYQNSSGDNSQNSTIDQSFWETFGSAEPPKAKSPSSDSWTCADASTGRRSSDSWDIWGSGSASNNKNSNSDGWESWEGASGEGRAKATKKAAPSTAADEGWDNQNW

[17] = molecular target: Arf-GAP with SH3 domain, ANK repeat and PH domain-containing protein 1 (Homo sapiens, UniProt Q9ULH1); type: functional;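 further: biochemical fluorescence polarization dose–response screen measuring inhibition of ASAP1; ASAP1 GAP domain stimulating GTP hydrolysis by truncated human ARF1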
Chain of Arf-GAP with SH3 domain, ANK repeat and PH domain-containing protein 1 (Q9ULH1 whole entry, the tested form may be a part): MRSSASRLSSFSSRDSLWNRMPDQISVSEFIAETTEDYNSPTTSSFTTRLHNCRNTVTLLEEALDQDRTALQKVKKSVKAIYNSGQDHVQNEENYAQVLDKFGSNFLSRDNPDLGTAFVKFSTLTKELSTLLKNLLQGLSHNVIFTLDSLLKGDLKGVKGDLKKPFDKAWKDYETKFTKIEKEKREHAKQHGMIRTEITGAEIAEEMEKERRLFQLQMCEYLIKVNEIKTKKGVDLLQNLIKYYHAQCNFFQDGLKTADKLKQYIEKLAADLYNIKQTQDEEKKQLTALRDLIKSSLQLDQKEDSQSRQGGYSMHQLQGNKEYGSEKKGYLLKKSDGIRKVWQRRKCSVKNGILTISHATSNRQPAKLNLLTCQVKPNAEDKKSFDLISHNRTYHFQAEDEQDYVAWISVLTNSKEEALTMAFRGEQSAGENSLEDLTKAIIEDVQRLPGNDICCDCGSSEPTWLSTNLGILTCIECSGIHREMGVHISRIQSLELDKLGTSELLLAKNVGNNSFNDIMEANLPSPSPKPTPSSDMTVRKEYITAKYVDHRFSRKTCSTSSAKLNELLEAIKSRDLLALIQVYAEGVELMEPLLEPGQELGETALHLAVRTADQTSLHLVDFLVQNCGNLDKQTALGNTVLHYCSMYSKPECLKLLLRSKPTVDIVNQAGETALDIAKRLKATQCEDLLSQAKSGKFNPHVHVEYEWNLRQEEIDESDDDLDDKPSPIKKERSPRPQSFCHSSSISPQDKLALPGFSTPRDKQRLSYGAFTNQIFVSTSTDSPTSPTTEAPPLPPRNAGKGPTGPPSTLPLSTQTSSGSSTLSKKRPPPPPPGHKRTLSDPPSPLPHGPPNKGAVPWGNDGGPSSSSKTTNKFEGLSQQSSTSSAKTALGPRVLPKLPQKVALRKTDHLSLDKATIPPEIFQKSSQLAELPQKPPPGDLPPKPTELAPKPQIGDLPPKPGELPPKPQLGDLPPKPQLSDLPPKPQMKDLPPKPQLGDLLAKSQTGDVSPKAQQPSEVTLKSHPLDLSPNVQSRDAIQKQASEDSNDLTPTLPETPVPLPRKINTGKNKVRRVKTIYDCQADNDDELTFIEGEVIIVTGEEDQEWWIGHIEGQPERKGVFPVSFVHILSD

[18] = growth suppression of PTEN-null colon cells, dose response, cell-based, HCT116 PTEN knockout (AID 1047); type: functional;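 further: HCT116 colon tumor cells with PTEN knocked out; cells exposed to compound for 60 hours before readout; potency for loss of cell viability measured by luminescence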
[19] = growth suppression of beta-catenin-knockout colon cells, dose response, cell-based, HCT116, human colon tumor (AID 1045); type: functional;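 further: HCT116 colon tumor cells with beta catenin knocked out; cells exposed to compound for 60 hours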
Streptokinase A = molecular target: T7, Streptokinase A (Streptococcus pyogenes serotype M1, UniProt P10520); assay: S. pyogenes streptokinase expression inhibitors, potency, dose response, plasminogen activation absorbance, OD405 (AID 1914); type: functional, Streptococcus pyogenes M1 GAS;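 further: secreted streptokinase activity via plasminogen activation per viability signal from cell pellet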
T7 sequence (P10520 whole entry): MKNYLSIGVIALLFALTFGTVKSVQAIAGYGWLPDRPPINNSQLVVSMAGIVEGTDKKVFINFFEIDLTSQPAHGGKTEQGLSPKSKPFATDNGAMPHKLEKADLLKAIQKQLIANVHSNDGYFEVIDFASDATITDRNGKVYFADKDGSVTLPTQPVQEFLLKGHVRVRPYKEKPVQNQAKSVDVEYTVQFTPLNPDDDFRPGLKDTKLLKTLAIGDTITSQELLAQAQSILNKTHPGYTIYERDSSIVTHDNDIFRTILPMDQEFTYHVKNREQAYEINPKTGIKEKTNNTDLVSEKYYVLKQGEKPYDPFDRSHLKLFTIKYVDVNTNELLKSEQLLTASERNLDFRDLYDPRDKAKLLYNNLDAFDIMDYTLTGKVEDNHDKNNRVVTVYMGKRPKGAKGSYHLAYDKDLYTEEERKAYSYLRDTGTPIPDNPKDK

[20] = cytotoxicity toward NIH3T3 fibroblasts, dose response, counter-screen, cell-based, ATP luminescence, mouse fibroblasts (AID 2010); type: functional;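 further: cells exposed to compound for about 90 hours before reading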
[21] = Luminescence Cell-Based Dose Retest to Confirm Inhibitors of Cancer Stem Cells. [Related pubchem assays (depositor defined):AID2717, AID2721]; type: functional; settings: Homo sapiens
[22] = inhibitors of intracellular T. cruzi replication, confirmation, NIH3T3 host cells, beta-gal luminescence (AID 2044); type: functional, cell-based;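 further: intracellular parasites grown in NIH/3T3 mouse fibroblasts as host cells; luminescent beta-galactosidase reporter signal from transgenic T. cruzi replicating inside host cells; inhibitors lower the luminescence signal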
[23] = HEK293T cytotoxicity, dose response, cytotoxicity control for miR-122 modulator project, cell-based, inhibitor set, cherry-pick, set 2 (AID 720697); type: functional
[24] = molecular target: SWI/SNF-related matrix-associated actin-dependent regulator of chromatin subfamily A member 2 (Homo sapiens, UniProt P51531); assay: Luminescence-based cell-based high throughput dose response assay to identify activators of the function of SWI/SNF related, matrix associated, actin dependent regulator of chromatin, subfamily a, member 2 (SMARCA2, BRM).; type: functional
Chain of SWI/SNF-related matrix-associated actin-dependent regulator of chromatin subfamily A member 2 (P51531 whole entry): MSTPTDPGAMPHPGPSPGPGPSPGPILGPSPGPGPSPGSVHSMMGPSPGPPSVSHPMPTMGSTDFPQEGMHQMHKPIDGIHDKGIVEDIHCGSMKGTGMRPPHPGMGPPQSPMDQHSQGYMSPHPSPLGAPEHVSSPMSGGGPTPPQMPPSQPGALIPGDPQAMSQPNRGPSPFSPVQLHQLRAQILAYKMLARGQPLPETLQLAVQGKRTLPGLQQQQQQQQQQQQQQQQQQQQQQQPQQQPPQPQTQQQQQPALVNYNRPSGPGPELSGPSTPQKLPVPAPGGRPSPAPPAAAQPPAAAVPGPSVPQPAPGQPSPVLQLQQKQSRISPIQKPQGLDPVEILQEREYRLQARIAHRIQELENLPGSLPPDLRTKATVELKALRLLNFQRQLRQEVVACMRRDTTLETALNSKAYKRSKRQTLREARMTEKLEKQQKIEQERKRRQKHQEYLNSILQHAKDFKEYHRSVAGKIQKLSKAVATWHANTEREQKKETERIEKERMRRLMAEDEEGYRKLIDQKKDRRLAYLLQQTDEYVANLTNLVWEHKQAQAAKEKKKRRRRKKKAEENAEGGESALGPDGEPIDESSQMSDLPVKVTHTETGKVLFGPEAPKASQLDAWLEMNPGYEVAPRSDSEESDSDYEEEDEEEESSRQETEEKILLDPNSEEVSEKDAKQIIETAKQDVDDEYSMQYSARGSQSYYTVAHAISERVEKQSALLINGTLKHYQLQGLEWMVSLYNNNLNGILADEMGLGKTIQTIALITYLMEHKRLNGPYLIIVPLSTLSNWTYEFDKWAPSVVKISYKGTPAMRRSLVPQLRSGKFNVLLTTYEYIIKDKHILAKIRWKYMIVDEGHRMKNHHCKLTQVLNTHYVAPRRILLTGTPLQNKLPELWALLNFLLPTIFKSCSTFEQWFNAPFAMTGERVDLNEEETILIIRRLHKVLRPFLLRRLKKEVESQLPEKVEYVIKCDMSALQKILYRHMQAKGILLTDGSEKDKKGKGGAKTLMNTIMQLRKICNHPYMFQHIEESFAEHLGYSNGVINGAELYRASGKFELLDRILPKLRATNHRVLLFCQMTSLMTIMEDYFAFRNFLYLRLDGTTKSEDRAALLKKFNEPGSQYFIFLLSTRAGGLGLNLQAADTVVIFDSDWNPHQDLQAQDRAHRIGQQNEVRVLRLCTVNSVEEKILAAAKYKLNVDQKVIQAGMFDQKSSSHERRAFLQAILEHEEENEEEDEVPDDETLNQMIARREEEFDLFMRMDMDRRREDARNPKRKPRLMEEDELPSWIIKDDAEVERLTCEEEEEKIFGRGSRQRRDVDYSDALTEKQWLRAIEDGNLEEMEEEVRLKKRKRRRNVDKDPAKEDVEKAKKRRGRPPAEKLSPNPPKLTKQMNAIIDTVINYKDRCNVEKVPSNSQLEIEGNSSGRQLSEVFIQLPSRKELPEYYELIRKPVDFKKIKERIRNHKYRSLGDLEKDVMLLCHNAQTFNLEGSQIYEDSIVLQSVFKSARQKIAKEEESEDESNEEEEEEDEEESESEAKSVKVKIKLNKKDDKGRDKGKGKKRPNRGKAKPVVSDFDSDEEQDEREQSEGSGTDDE

[25] = Counterscreen for activators of the function of SWI/SNF related, matrix associated, actin dependent regulator of chromatin, subfamily a, member 2 (SMARCA2, BRM): Luminescence-based cell-based high throughput dose response assay to identify non-selective compounds using the VP16 reporter assay.; type: functional
Large T antigen = Large T antigen (Simian virus 40, UniProt P03070); type: functional, Betapolyomavirus macacae;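 further: Confirmatory-stage PubChem screen for compounds that inhibit SV40 T antigen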
Chain of Large T antigen (P03070 whole entry): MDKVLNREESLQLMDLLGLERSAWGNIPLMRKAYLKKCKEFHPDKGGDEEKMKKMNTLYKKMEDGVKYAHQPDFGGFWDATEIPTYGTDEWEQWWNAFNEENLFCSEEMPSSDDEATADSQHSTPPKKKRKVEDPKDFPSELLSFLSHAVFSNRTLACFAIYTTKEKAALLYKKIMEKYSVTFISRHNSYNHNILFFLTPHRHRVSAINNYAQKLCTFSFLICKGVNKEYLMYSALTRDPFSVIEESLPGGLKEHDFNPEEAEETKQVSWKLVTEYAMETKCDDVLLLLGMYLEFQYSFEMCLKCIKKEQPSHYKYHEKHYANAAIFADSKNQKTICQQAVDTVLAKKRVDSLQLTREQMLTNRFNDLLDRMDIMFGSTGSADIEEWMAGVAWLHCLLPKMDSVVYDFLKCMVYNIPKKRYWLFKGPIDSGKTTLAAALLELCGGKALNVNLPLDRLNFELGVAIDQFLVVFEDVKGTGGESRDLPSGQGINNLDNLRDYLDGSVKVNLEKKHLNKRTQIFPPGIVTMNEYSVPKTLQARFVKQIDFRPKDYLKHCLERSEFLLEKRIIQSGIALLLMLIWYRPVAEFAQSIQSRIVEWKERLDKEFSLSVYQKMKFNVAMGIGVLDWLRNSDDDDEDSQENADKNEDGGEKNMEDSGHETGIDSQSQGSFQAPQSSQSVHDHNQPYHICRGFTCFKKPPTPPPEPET

Mu-type opioid receptor = Mu-type opioid receptor (Homo sapiens, UniProt P35372); type: functional, cell-based;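 further: U2OS cells with beta-arrestin recruitment to OPRM1 by beta-gal complementation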
Chain of Mu-type opioid receptor (P35372 whole entry): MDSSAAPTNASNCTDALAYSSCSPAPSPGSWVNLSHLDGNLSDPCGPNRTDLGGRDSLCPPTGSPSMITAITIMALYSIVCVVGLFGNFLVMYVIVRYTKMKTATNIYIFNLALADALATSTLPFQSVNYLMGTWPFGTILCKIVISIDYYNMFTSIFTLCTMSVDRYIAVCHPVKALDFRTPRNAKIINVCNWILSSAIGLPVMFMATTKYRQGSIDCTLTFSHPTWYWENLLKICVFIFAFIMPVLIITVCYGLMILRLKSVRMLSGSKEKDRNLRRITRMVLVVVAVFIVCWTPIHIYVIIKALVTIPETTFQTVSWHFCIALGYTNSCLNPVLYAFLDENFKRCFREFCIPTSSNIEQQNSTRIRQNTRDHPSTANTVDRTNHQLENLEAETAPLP

Structure (SMILES): COc1ccc(/C=C2\CCC/C(=C\c3ccc(OC)c(OC)c3OC)C2=O)c(OC)c1OC
- IC50 [1]: 4.04 µM (active)
- EC50 [2]: > 53 µM (inactive)
- IC50 [3]: 7.33 µM (active)

Structure (SMILES): COc1ccc(C(=O)NCCC2=CCCCC2)cc1
- IC50 (cells): > 67.5 µM (inactive)
- IC50 [4]: > 0.278 µM (active)
- EC50 [5]: 8.58 µM (active)
- EC50 [6]: 8.69 µM (inconclusive)

Structure (SMILES): NC(=O)c1ccc(/N=C2\C(=O)Nc3ccc([N+](=O)[O-])cc32)cc1
- IC50 [7]: 3.98 µM (active)
- IC50 [8]: 4.25 µM (active)
- IC50 [9]: 27.5 µM (active)

Structure (SMILES): CN(C)[C@@H]1C(=O)C(C(N)=O)=C(O)[C@@]2(O)C(O)=C3C(=O)c4c(O)cccc4[C@@](C)(O)C3[C@H](O)C12 (some centres not stated)
- EC50 (Streptococcus): 0.277 µM (active)
- EC50 [10]: 54.1 µM (active)
- AC50 (Escherichia coli [11]): 9.92 µM (active)
- EC50 [12]: 20.5 µM (active)
- EC50 [13]: 0.088 µM (active)
- AC50 [14]: 75.2 µM (active)
- AC50 (Escherichia coli [15]): < 0.3 µM (active)

Structure (SMILES): O=C(/C=C\c1cn(-c2ccccc2)nc1-c1ccccc1)Nc1nccs1
- IC50 [16]: 32.1 µM (inactive)
- IC50 [17]: 26.2 µM (inactive)
- EC50 [18]: 7.09 µM (active)
- EC50 [19]: 7.96 µM (active)

Structure (SMILES): C/C(=N\Nc1cc(N2CCCCC2)nc(C)n1)c1ccc(Br)cc1
- EC50 (Streptococcus): > 50 µM (not active)
- EC50 (Streptokinase A): 46.7 µM (inconclusive)
- EC50 [13]: 6.7 µM (active)
- EC50 [20]: > 60 µM (not active)
- AC50 [21]: 5.52 µM (active)
- EC50 [22]: 0.7 µM (active)
- AC50 [23]: 5.41 µM (active)

Structure (SMILES): CCc1noc(C)c1C(=O)N1CCS/C1=N\c1cccc(Cl)c1C
- IC50 [1]: < 0.368 µM (active)
- EC50 [2]: > 53 µM (inactive)
- IC50 [3]: > 20 µM (inactive)

Structure (SMILES): O=C(N/N=C/c1ccc2c(c1)OCO2)c1ccccn1
- IC50 (cells): > 67.5 µM (inactive)
- IC50 [4]: > 67.5 µM (inactive)

Structure (SMILES): O=C1C(Sc2ccccc2)=C[C@@]2(O)CC[C@@H](O)[C@]1(Sc1ccccc1)[C@H]2O
- EC50 [24]: > 91.3 µM (inactive)
- EC50 [25]: > 91.3 µM (inactive)

Structure (SMILES): NCCc1c[nH]c2ccc(O)cc12 [SEROTONIN HYDROCHLORIDE]
- IC50 (Large T antigen): 41.3 µM (active)
- EC50 (Mu-type opioid receptor): 92.4 µM (inactive)

— ChEMBL document CHEMBL1201862, “PubChem BioAssay data set” (2004)
